# How the values were obtained:
# [1] = target: human alpha1 nicotinic acetylcholine (nACh) receptor (Homo sapiens, UniProt P02708+Q07001); assay: Nicotinic acetylcholine receptor antagonism assay, IONFlux automated patch clamp (Example 203); assay type: cell-based; conditions: for IC50: nAChR antagonism, ACh stimulated, patch clamp; for Emax at 10 µM: maximum percentage antagonism at maximum concentration tested 10 μM
# How it was run: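 Human α1 nAChR-expressing cells were preincubated with compound (top 10 μM or 100 μM), then stimulated with 10 mM ACh; peak currents were recorded by IONFlux automated patch clamp. Percent inhibition versus ACh-alone control was vehicle- and rundown-corrected, then fitted to give IC50, with maximal antagonism at the top concentration; recordings with control current <500 pA were excluded.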
# [2] = target: Anti-cotinine antibody (SEQ ID NO: 11 / SEQ ID NO: 12, rabbit variable region with human IgG1 Fc domain); assay: Binding of anti-cotinine antibody to ARM compounds by SPR, Biacore T200, 37° C. (Example 202); conditions: pH 7.4, rabbit variable region/human IgG1 Fc antibody captured on protein A
# How it was run: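 Run at 37° C. in 10 mM HEPES pH 7.4, 150 mM NaCl, 0.005% P20, 1% DMSO. Compound titrated from 200 nM (five 3-fold steps) over protein A-captured antibody, with 200/2000 s association/dissociation. 1:1 kinetic fit gave kon, koff, Kd and residence time (1/koff); pKd averaged where runs repeated.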
# [3] = test system: Anti-cotinine antibody SEQ ID NO: 11 / SEQ ID NO: 12 (rabbit version); assay: Binding of rabbit anti-cotinine antibody to ARM compounds by SPR, Biacore 8k, 25° C. (Example 202)
# Source text: Anti-cotinine antibodies having a heavy chain sequence of SEQ ID NO: 9 and a light chain sequence of SEQ ID NO: 10 (humanized version) or a heavy chain sequence of SEQ ID NO: 11 and a light chain sequence of SEQ ID NO: 12 (rabbit version) were captured via the Fc domain to a protein A or A/G surface on flow cell 2 of a CM5 sensor chip using the Biacore 8k.
# After antibody capture, a 1500 second wait step was included to reduce drift in the binding step. ARM compounds of Formula (I) were then flowed over the captured antibodies at varying top concentrations ranging from 250 nM to 4 μM (see Table 6 below for top concentration values). The top concentration was diluted 4-fold over 5 dilutions (with a 0 nM compound cycle included to blank subtract the data). Association and dissociation times of the ARMs compounds of Formula (I) varied between experiments as follows and indicated in Table 6 below: reference 1—association for 600 seconds and dissociation for 1200 seconds at 20 μl/min; reference 2—association for 240 seconds and dissociation for 300 seconds at 30 μl/min; reference 3—association for 360 seconds and dissociation for 600 seconds at 30 μl/min. Anti-cotinine antibody bound to the protein A or A/G surface was regenerated using 50 mM NaOH. Experiments were run at 25° C. at pH 7.4 using HBS-EP+ buffer using Biacore 8K control software and evaluated using Biacore Insight Evaluation software. Curves were fit with the 1:1 kinetic fit inherent to the software, utilising a local Rmax and local drift setting.
# Anti-cotinine antibody was tested for binding to ARMs compounds of Formula (I) of the invention in the above assay in or more experimental runs and the results are shown in Table 6 below. Affinity is reported as a pKd value. The pKd value is the negative log of the Kd value, wherein the Kd value is the dissociation constant measured in molar (M) as noted above. For compounds tested in more than one experimental run, the pKd value is reported as an average.
# [4] = reference 3: association 360 s, dissociation 600 s at 30 μl/min, top concentration 2.50E−08 or 6.25E−09 M
# human alpha1 nicotinic acetylcholine (nACh) receptor, sequence (P02708 21-457): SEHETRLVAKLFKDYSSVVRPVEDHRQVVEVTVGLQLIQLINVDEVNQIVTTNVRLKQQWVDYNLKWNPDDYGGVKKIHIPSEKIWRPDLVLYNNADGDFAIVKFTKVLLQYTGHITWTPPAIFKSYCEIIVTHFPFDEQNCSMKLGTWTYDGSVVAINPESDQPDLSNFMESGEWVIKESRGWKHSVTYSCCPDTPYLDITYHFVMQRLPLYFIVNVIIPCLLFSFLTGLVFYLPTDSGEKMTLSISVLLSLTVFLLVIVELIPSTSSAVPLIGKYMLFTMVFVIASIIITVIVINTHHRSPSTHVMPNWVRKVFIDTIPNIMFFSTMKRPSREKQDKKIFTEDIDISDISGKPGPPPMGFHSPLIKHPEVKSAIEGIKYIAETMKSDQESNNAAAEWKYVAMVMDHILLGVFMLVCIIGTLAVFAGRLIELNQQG
# human alpha1 nicotinic acetylcholine (nACh) receptor, sequence (P11230 24-501 partner): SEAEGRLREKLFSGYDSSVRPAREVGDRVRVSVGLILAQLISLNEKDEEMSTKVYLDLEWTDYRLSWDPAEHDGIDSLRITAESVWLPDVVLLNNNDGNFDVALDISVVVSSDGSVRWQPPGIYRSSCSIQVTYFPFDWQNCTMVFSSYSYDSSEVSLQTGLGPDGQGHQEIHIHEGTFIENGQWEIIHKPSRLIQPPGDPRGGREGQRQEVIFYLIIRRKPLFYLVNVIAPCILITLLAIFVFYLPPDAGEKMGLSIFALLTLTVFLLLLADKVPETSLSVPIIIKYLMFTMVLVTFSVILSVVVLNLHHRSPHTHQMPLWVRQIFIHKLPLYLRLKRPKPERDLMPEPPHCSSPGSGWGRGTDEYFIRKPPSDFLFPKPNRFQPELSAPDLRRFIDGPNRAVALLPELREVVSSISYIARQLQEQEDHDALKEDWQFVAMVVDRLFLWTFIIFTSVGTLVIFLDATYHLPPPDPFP
# human alpha1 nicotinic acetylcholine (nACh) receptor, sequence (Q07001 22-517): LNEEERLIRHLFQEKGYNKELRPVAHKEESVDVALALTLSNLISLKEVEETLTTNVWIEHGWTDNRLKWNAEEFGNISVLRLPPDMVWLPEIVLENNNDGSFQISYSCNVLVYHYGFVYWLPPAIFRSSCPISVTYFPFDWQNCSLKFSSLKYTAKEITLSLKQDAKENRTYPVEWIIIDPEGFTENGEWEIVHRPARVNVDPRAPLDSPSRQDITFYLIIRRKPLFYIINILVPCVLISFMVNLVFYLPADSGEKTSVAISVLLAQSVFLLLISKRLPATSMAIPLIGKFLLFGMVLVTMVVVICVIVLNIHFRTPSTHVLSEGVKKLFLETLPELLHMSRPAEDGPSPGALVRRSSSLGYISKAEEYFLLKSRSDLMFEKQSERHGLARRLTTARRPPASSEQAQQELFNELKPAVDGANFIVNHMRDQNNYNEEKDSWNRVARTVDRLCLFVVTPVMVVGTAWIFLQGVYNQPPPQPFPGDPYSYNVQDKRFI
structure (smiles),measurement,setting,value
"CC(C)N(C)[C@@H]1CC[C@H](N2CC[C@H](Nc3ncnc4ccc(C(F)(F)F)cc34)C2=O)[C@H](NC(=O)[C@H]2CC[C@H](NC(=O)CCCO[C@H]3CC[C@H](OCCNC(=O)[C@H]4CC(=O)N(C)[C@@H]4c4cccnc4)CC3)CC2)C1 [Example 1, (2S,3S)-N-(2-(((1R,4S)-4-(4-(((1R,4R)-4-(((1R,2S,5R)-5-(Isopropyl(methyl)amino)-2-((S)-2-oxo-3-((6-(trifluoromethyl)quinazolin-4-yl)amino)pyrrolidin-1-yl)cyclohexyl)carbamoyl)cyclohexyl)amino)-4-oxobutoxy)cyclohexyl)oxy)ethyl)-1-methyl-5-oxo-2-(pyridin-3-yl)pyrrolidine-3-carboxamide]",Emax at 100 µM,"[1]; maximum percentage antagonism at maximum concentration tested 100 μM, read-out: Maximum Response (%)",25.6%
same,IC50,[1],84.6 µM
same,pKd of Antibody for ARM Compound of Formula (I),[2],9.654
same,ka,[3]; [4],5.57e+06 M⁻¹ s⁻¹
same,kd,[3]; [4],0.000156 s⁻¹
same,pKd,[3]; [4],10.55
CN1C(=O)C[C@H](C(=O)NCCO[C@H]2CC[C@H](OCCCC(=O)N[C@H]3CC[C@H](C(=O)N[C@@H]4C[C@H](NC(C)(C)C)CC[C@@H]4N4CC[C@H](Nc5ncnc6ccc(C(F)(F)F)cc56)C4=O)CC3)CC2)[C@H]1c1cccnc1 [Example 10],Emax at 33.33 µM,"[1]; maximum percentage antagonism at maximum concentration tested 33.33 μM, read-out: Maximum Response (%)",48%
same,IC50,[1],> 33.3 µM
same,pKd of Antibody for ARM Compound of Formula (I),[2],9.199
same,pKd,"[3]; reference 2: association 240 s, dissociation 300 s at 30 μl/min, top concentration 1.00E−06 or 4.00E−06 M",Poor fit
CN1C(=O)C[C@H](C(=O)NCCOCCOCCOCCOCCOCCC(=O)N[C@@H]2C[C@H](NC(C)(C)C)CC[C@@H]2N2CC[C@H](Nc3ncnc4ccc(C(F)(F)F)cc34)C2=O)[C@H]1c1cccnc1 [Example 37],Emax at 10 µM,[1]; read-out: Maximum Response (%),7.3%
same,IC50,[1],> 10 µM
same,pKd of Antibody for ARM Compound of Formula (I),[2],9.7475
CN1C(=O)C[C@H](C(=O)NCCOCCOCCOCCOCCOCCOCCC(=O)N[C@@H]2C[C@H](NC(C)(C)C)CC[C@@H]2N2CC[C@H](Nc3ncnc4ccc(C(F)(F)F)cc34)C2=O)[C@H]1c1cccnc1 [Example 38],Emax at 10 µM,[1]; read-out: Maximum Response (%),-2.2%
same,IC50,[1],> 10 µM
same,pKd of Antibody for ARM Compound of Formula (I),[2],9.611

# Reference: patent US20250136722A1, “CYTOTOXICITY TARGETING CHIMERAS” (GLAXOSMITHKLINE INTELLECTUAL PROPERTY DEVELOPMENT LIMITED, priority 2021, published 2025)
